Columns and labels:
HL-60 = assay: Cytotoxicity, annexin V/7-AAD viability by flow cytometry, HL-60; format: cell-based, human; conditions: HL-60, 48 hours, drug range tested 1.25-160 μM
Procedure: (§1) In order to assess the structure-activity relationship of DHL and its derivatives, DHL and its derivatives were evaluated against eight human leukemia cell lines. Cell lines were cultured in Iscove's Modified Dulbecco's Medium (IMDM) supplemented with 10%˜20% fetal bovine serum (FBS) according to culture conditions indicated by ATCC and 1% penicillin/streptomycin (Pen/Strep) at 37° C. and 5% CO2. The cells were seeded into 96-well plates and kept at a concentration of 0.5 million cells per mL. The samples were treated with DHL, Leucodine, DHL-Morpholine, DHL-Proline, DHL-Piperidine, and PTL at varying concentrations in triplicates. Cell viability was determined after incubating for 48 hours. The cells were stained with annexin V-fluorescein isothiocyanate or phycoeritrine (FITC/PE) and 7-aminoactinomycin (7-AAD) to detect phosphatidylserine exposition and cell permeability, respectively. At least 50,000 events were recorded per condition on either an LSR-II or LSR-Fortessa flow cytometer (BD Biosciences). Data analysis was conducted using FlowJo 9.6 software for Mac OS X (TreeStar). Cells that were negative for annexin V and 7-AAD were scored as viable.

Kasumi-1 = assay: Cytotoxicity, annexin V/7-AAD viability by flow cytometry, Kasumi-1; format: cell-based, human; conditions: Kasumi-1, 48 hours, drug range tested 1.25-160 μM
Procedure: as §1

KG-1 = assay: Cytotoxicity, annexin V/7-AAD viability by flow cytometry, KG-1; format: cell-based, human; conditions: KG-1, 48 hours, drug range tested 1.25-160 μM
Procedure: In order to assess the structure-activity relationship of DHL and its derivatives, DHL and its derivatives were evaluated against eight human leukemia cell lines. Cell lines were cultured in Iscove's Modified Dulbecco's Medium (IMDM) supplemented with 10%˜20% fetal bovine serum (FBS) according to culture conditions indicated by ATCC and 1% penicillin/streptomycin (Pen/Strep) at 37° C. and 5% CO2. […] Cell viability was determined after incubating for 48 hours.

MOLM-13 = assay: Cytotoxicity, annexin V/7-AAD viability by flow cytometry, MOLM-13; format: cell-based, human; conditions: MOLM-13, 48 hours, drug range tested 1.25-160 μM
Procedure: as §1

MV4-11 = assay: Cytotoxicity, annexin V/7-AAD viability by flow cytometry, MV4-11; format: cell-based, human; conditions: MV4-11, 48 hours, drug range tested 1.25-160 μM
Procedure: as §1

THP-1 = assay: Cytotoxicity, annexin V/7-AAD viability by flow cytometry, THP-1; format: cell-based, human; conditions: THP-1, 48 hours, drug range tested 1.25-160 μM
Procedure: as §1

TUR = assay: Cytotoxicity, annexin V/7-AAD viability by flow cytometry, TUR; format: cell-based, human; conditions: 48 hours, drug range tested 1.25-160 μM
Procedure: as §1

U-937 = assay: Cytotoxicity, annexin V/7-AAD viability by flow cytometry, U-937; format: cell-based, human; conditions: U-937, 48 hours, drug range tested 1.25-160 μM
Procedure: as §1

HMOX1 (Heme oxygenase 1) = assay: Quantitative PCR of HMOX1 in MOLM-13 or MV-411 cells; format: cell-based; conditions: 20 μM, 6 hours, MOLM-13 and MV-411 cells
Procedure: (§2) (FIG. 8A) Graphical representation of the fold changes of HMOX-1 in MOLM-13 cells. Cells were seeded at 0.5 million cells per milliliter and subject to 20 μM of DHL, leucodine, DHL-proline, DHL-piperidine, DHL-morpholine, or parthenolide for 6 hours. RNA was then extracted and quantitative PCR was performed. Experiments were performed in triplicates. Lines represent mean for each specimen, with error bars representing the SD. Fold change was calculated by the delta-delta Ct method. […] (FIG. 8D) Immunoblot for MOLM-13 cells after 6 hours of treatment with either DHL or PTL with 10 or 20 μM. Blot was probed for phospho-p65 and p65 antibodies. Total p65 is shown as the loading control.
(§3) (FIG. 9A) Graphical representation of the fold changes of HMOX-1 in MV-411 cells. Cells were seeded at 0.5 million cells per milliliter and subject to 20 μM of DHL, leucodine, DHL-proline, DHL-piperidine, DHL-morpholine, or parthenolide for 6 hours. RNA was then extracted and quantitative PCR was performed. Experiments were performed in triplicates. Lines represent mean for each specimen, with error bars representing the SD. Fold change was calculated by the delta-delta Ct method. (FIG. 9B) Graphical representation of the fold changes of HSPA1A in MV-411 cells, with the same experimental setup and analysis as FIG. […].
(§4) To compare these intracellular effects of DHL and its derivatives, quantitative PCR was performed (FIG. 8 and FIG. 9). MOLM-13 or MV-411 cells were seeded at 0.5 million cells per milliliter. Cells were treated for 6 hours with 20 μM of DHL, Leucodine, DHL-Morpholine, DHL-Proline, DHL-Piperidine or PTL, and then collected. Total RNA was extracted using the Qiashredder and Qiagen Rneasy Mini kits. […] Quantitative PCR was performed using probes for HMOX-1 (Hs01110251_m1), HSPA1A (Hs00359163_s1), and NFKB1 (Hs00765730_m1). […] Single-plex real-time PCR was performed in triplicates in a StepOne plus RealTime PCR system and analyzed with the StepOne Software. Fold change was calculated using the 2-DDCT method described by Livak and Schmittgen.

HSPA1A = assay: Quantitative PCR of HSPA1A in MOLM-13 or MV-411 cells; format: cell-based; conditions: 20 μM, 6 hours, MOLM-13 and MV-411 cells
Procedure: as §2, §3, §4

[1] = system: eight human leukemia cell lines
Procedure: Cell lines were cultured in Iscove's Modified Dulbecco's Medium (IMDM) supplemented with 10%˜20% fetal bovine serum (FBS) according to culture conditions indicated by ATCC and 1% penicillin/streptomycin (Pen/Strep) at 37° C. and 5% CO2. The cells were seeded into 96-well plates and kept at a concentration of 0.5 million cells per mL. […] Cell viability was determined after incubating for 48 hours. The cells were stained with annexin V-fluorescein isothiocyanate or phycoeritrine (FITC/PE) and 7-aminoactinomycin (7-AAD) to detect phosphatidylserine exposition and cell permeability, respectively. At least 50,000 events were recorded per condition on either an LSR-II or LSR-Fortessa flow cytometer (BD Biosciences). Data analysis was conducted using FlowJo 9.6 software for Mac OS X (TreeStar). Cells that were negative for annexin V and 7-AAD were scored as viable.

NF-κB = assay: Quantitative PCR of NF-κB transcript in MOLM-13 and MV-411 cells; format: cell-based; conditions: 20 μM, 6 hours
Procedure: as §2
as §4, with “collected.” for “collected. Total RNA was extracted using the Qiashredder and Qiagen Rneasy Mini kits.”

Row | SMILES | LD50 (HL-60) | LD50 (Kasumi-1) | LD50 (KG-1) | LD50 (MOLM-13) | LD50 (MV4-11) | LD50 (THP-1) | LD50 (TUR) | LD50 (U-937) | HMOX1 expression, fold change (HMOX1 (Heme oxygenase 1)) | HSPA1A expression, fold change (HSPA1A) | anti-leukemic activity / in vitro cytotoxicity [1] | NF-κB transcript levels (NF-κB)
1 | CC1=CC(=O)C2=C(C)CCC3C(CN4CCCC4C(=O)O)C(=O)OC3C12 (stereo not drawn) [DHL-Proline] | 50.2 µM | 28.1 µM | 97.7 µM | 20.6 µM | 23.3 µM | 26.7 µM | 35.9 µM | 33.0 µM | upregulated HMOX1 and HSPA1A the most | upregulated HMOX1 and HSPA1A the most | most potent derivative | 
2 | CC1=CC(=O)C2=C(C)CCC3C(CN4CCCCC4)C(=O)OC3C12 (stereo not drawn) [DHL-Piperidine] | 96.5 µM | >160 µM | 182 µM | 52.3 µM | 66.9 µM | 59.3 µM | >160 µM | >160 µM |  |  |  | 
3 | CC1=CC(=O)C2=C(C)CC[C@@H]3[C@H](OC(=O)[C@H]3C)[C@@H]12 [Leucodine, leucodine] | >160 µM | >160 µM | >160 µM | >160 µM | >160 µM | 121 µM | 105 µM | >160 µM | upregulated | upregulated | not found to be active | slightly downregulated
4 | CC1=CC(=O)C2=C(C)CCC3C(CN4CCOCC4)C(=O)OC3C12 (stereo not drawn) [DHL-Morpholine] | 166 µM | >160 µM | 129 µM | >160 µM | 21.1 µM | 54.4 µM | >160 µM | 74.7 µM |  |  |  | 

Reference: patent US11059800B2, “Dehydroleucodine derivatives and uses thereof” (Bioventures, LLC, priority 2013, dated 2021)
